# According to PMC8533299, “Synthesis, In Silico Study, and Anti-Cancer Activity of Thiosemicarbazone Derivatives” (Biomedicines, 2021):
# System: MCF-7 (Human breast cancer)
# Assay: MTT test on MCF-7 cells
# Assay type: cell-based
# Details: MCF7, till 48 h
# Description: The in vitro anticancer activities of the synthesized compounds were conducted using different cancerous and non-cancerous cell lines viz B16-F0 (Mouse melanoma), mouse Ehrlich Ascites Carcinoma (EAC), MCF-7 (Human breast cancer), MCF-10A (Human breast epithelial cells), and NIH/3T3 (Mouse fibroblast cells). All cell lines were procured from the National Centre for Cell Science, Pune, India. The procured cells were cultured in a six-well culture plate with Dulbecco’s Modified Eagle’s Medium (DMEM) supplemented with 10% fetal bovine serum in a humid CO2 incubator with 5% carbon dioxide at 37 °C.
# The anti-cancer effect and cytotoxicity of both 3-MBTSc and 4-NBTSc compounds were evaluated against different cancerous (MCF-7, EAC, B16-F0 cells) and noncancerous cells (MCF-10A, NIH-3T3 cells) using MTT test. In brief, the stock solutions of both the tested compounds were prepared by dissolving 1 mg of each compound in 1 mL of DMSO separately. Then, four different concentrations (5, 10, 12, and 20 µg/mL) of both compounds were used during the test along with the negative control. Also, 10 μg/mL of doxorubicin (Dox) was used as the positive control during the experiment. Both untreated and treated cells were incubated for next 24 and 48 h. Then, all the steps during the whole experiment were carried out by our earlier reported procedure. Later, the absorbance values were measured by an ELISA reader (Biorad, Hercules, CA, USA) at 570 nm wavelength using secondary wavelength as a reference at 620 nm and the percentages of cell viability was calculated using the following formula [59, 60, 61]. Cell viability (%)= Mean absorbance of treated cells/Mean absorbance of untreated cells × 100
# Based on the cell viability data, the IC50 values of both compounds were calculated on different cancer cells by plotting their corresponding dose-responsive graphs.
# The obtained data were statistically analyzed. The descriptive analysis was done and the IC50 values were calculated by fitting the sigmoidal dose responsive graph using GraphPad Prism (GraphPad Software, Inc., La Jolla, CA, USA). […]
compound,measurement,value
"COc1cccc2c1C(=O)c1c(O)c3c(c(O)c1C2=O)C[C@@](O)(C(=O)CO)C[C@@H]3O[C@H]1C[C@H](N)[C@H](O)[C@H](C)O1 [DOX, doxorubicin, reference compound]",IC50,3.162 ± 0.018 µg/mL
